Columns and labels:
Assay in all cases: […]-pyruvate uptake, filter assay, complemented triple mutant
Type in all cases: cell-based
Conditions in all cases: 0.5 mM 14C-pyruvate, TSBG, 37 °C; labelled compound
LrgAB = molecular target: T1, LrgAB (Staphylococcus aureus, UniProt Q2FK07+Q2FK08)
T1 construct: gene lrgA; lrgAB operon, untagged; expressed from Pcad::lrgAB (pBK123) in S. aureus JE2 transporter mutants

LctP = molecular target: T2, LctP (Staphylococcus aureus, UniProt A0A0H2XEN8)
T2 construct: full-length 530 aa, untagged; expressed from Pcad::lctP (pBK123) in S. aureus JE2 delta lrgAB/lctP/lldP
T2 sequence (A0A0H2XEN8 entry or part of it): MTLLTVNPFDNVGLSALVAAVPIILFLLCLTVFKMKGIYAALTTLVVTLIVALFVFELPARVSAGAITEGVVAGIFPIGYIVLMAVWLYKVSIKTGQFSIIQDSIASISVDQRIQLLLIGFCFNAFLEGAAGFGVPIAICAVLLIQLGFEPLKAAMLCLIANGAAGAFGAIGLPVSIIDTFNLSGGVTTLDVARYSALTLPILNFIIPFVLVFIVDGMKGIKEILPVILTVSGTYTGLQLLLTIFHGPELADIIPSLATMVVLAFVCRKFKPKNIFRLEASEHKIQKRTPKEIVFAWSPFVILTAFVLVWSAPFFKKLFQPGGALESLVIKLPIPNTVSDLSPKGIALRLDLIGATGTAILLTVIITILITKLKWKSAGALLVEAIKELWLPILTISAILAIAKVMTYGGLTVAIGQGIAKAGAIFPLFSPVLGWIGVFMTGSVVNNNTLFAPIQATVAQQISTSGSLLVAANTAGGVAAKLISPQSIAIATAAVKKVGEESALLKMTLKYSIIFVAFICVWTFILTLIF

LldP = molecular target: T3, LldP (Staphylococcus aureus, UniProt A0A0H2XGA6)
T3 construct: gene SAUSA300_2313; full-length 532 aa, untagged; expressed from Pcad::lldP (pBK123) in S. aureus JE2 delta lrgAB/lctP/lldP
T3 sequence (A0A0H2XGA6 entry or part of it): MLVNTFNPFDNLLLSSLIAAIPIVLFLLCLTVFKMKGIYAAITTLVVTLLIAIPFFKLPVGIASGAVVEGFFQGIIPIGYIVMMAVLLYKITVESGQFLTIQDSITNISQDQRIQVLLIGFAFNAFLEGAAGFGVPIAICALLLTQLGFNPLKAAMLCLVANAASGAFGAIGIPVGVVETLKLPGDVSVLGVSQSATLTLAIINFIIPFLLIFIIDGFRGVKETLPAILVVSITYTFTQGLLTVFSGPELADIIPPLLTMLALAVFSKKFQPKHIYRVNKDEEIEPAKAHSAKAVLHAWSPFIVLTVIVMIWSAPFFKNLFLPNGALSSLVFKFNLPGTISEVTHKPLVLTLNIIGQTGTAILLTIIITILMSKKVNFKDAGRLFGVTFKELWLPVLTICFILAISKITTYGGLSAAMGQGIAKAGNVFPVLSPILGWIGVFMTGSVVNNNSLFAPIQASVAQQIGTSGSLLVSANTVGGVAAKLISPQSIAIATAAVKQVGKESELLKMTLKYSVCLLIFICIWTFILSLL

T1 sequence (Q2FK07 whole entry): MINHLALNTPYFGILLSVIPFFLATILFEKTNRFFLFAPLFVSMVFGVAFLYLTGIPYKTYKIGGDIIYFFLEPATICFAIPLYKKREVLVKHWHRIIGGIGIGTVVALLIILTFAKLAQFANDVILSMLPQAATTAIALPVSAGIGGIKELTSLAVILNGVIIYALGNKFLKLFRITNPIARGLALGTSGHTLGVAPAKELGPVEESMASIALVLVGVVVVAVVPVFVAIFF
T1 sequence (Q2FK08 whole entry): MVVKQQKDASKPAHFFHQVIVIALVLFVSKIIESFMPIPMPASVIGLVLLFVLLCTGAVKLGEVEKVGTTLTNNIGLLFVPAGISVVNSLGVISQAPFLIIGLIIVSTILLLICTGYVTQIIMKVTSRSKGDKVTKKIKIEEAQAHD

## CC(=O)C(=O)O [pyruvate]
LrgAB
  14C-pyruvate uptake, filter assay, complemented triple mutant: lctP playing the most significant role under these conditions, followed by lldP, and then lrgAB
LctP
  14C-pyruvate uptake, filter assay, complemented triple mutant: all three of the putative pyruvate transporters contribute to pyruvate import, with lctP playing
LldP
  14C-pyruvate uptake, filter assay, complemented triple mutant: lctP playing the most significant role under these conditions, followed by lldP, and then lrgAB
